Where a SMILES comes first, the peptide text is derived from it. Bridges are numbered along the chain shown (N, C = ends). Roman numbers before positions name the chains, in order.

In data set [1] the test system is GFPβ1-10 expressing H1299c#G3 cells. The class given is cell-based, human. As to conditions: FACS FSC/SSC and viable cell number relative to untreated control cells. From the text:
Cell morphology and cell viability.

In data set [2] the test system is GFPβ1-10 expressing MCF7c#G7 cells. Nature of the data set: split GFP fluorescence complementation transduction assay (FACS). The class given is cell-based, human. The settings on record: increasing amounts of peptide (FIG. 6). The protocol: (§1) Cell culture, transfections and immunoblots. H1299, MCF7, MDA-MB-231 and HaCat cells were maintained in DMEM supplemented with 10% FBS, 100 U/ml penicillin, and 100 U/ml streptomycin. H1299c#G3, H1299c#G4, MCF7c#G7, MDA-MB-231c#G3 and HaCaTc#G7 cells were generated by transfecting cells with pCMV-mGFPβ1-10 and subsequently grown under hygromycin selection. Hygromycin resistant cells were then treated with GFPβ11-TAT and directly after, individual, transiently fluorescent clonal cells were isolated by FACS sorting. Clones were expanded and tested for stable GFPβ1-10 expression. H1299c#G3, H1299c#G4, MCF7c#G7, MDA-MB-231c#G3 and HaCaTc#G7 cells were maintained in DMEM supplemented with 10% FBS, 100 U/ml penicillin, 100 U/ml streptomycin and 80 or 100 ug/ml hygromycin. Transient transfections of siRNA or plasmid DNA were performed using Lipofectamine 2000 according to standard protocol. Immunblots were performed using 10% SDS-PAGE, semi-dry transfer (BioRad) and developed on ChemiDoc Imager (BioRad).
(§2) Peptide transduction. All transduction experiments were performed in 48-well plates. An optimized protocol was established. First, 15,000 or 20,000 cells were plated in each well. Next day, the indicated peptides were pipetted into eppendorf tubes. Transduction buffer (60% OptiMEM and 40% PBS) was added to peptide (100 μl total volume), directly mixed by pipetting up and down five times and then immediately transferred to cells. All pipetting steps were done in a laminar flow cell culture hood and standardized to 15 min for each plate before transferring the plate of cells to a 37° C. […] CO2 incubator (alternatively cells were incubated 2 h with peptides and another 4 h with DMEM, 10% FBS (FIG. 8b, c, d). For the transduction time-course, cells were incubated with peptides in transduction buffer until indicated time-points. All cells were trypzinized and collected in 250 μl OptiMEM without phenol red and analyzed by FACS (GFP, FSC/SSC). 4000 viable cells were analyzed per sample. Data is presented as fold change in fluorescence compared to non-treated cells.

Data set [3] concerns GFPβ1-10 expressing HaCatc#G7 cells. The description is as above. The class given is cell-based, human. The settings on record: increasing amounts of peptide (FIG. 6). The method, then: as §1, §2
The test system of data set [4] is GFPβ1-10 expressing MDA-MB-231c#G3 cells. The description is as above. As to conditions: increasing amounts of peptide (FIG. 6). The class given is cell-based, human. The method, then: as §1, §2
Data set [5] shares this test system. The settings on record: increasing amounts of peptide (FIG. 6).
Experimental: (§3) Cell morphology and cell viability. Cell morphology was determined by FACS analysis of FSC and SSC. Gates were set manually for viable cells using untreated control cells as reference and the fraction of viable cells compared to non-viable cells was determined for each sample. Data are presented as the relative difference compared to non-treated control cells. Viable cells per sample were determined by measuring number of viable cells that were analyzed per second by FACS. Gates for viable cells were set manually using untreated control cells as reference. Data are presented as the relative difference compared to untreated control cells.
The subject of data set [6] is GFPβ1-10 expressing HaCatc#G7 cells. As to conditions: increasing amounts of peptide (FIG. 6).
Experimental: as §3
Data set [7] deals with GFPβ1-10 expressing H1299c#G3 cells. Nature of the data set: split GFP fluorescence complementation transduction assay (FACS). The format is cell-based, human. As to conditions: dose-dependent comparison, up to 60 μM, FACS (FIG. 4, 5). The protocol:
Peptide transduction. All transduction experiments were performed in 48-well plates. An optimized protocol was established. First, 15,000 or 20,000 cells were plated in each well. Next day, the indicated peptides were pipetted into eppendorf tubes. Transduction buffer (60% OptiMEM and 40% PBS) was added to peptide (100 μl total volume), directly mixed by pipetting up and down five times and then immediately transferred to cells. All pipetting steps were done in a laminar flow cell culture hood and standardized to 15 min for each plate before transferring the plate of cells to a 37° C. CO2 incubator for 1.5 h before addition of 500 μl DMEM supplemented with 10% FBS and another incubation round for 3.5 h in the 37° C. CO2 incubator (alternatively cells were incubated 2 h with peptides and another 4 h with DMEM, 10% FBS (FIG. 8b, c, d). For the transduction time-course, cells were incubated with peptides in transduction buffer until indicated time-points. All cells were trypzinized and collected in 250 μl OptiMEM without phenol red and analyzed by FACS (GFP, FSC/SSC). 4000 viable cells were analyzed per sample. Data is presented as fold change in fluorescence compared to non-treated cells.
To address these problems, the disclosure provides a self-assembling, bimolecular or split GFP fluorescence complementation system that was originally designed to tag and monitor proteins. GFP is composed of 11 β-strands that form a barrel structure allowing for peptidyl backbone cyclization and formation of a fluorescent chromophore. […] Importantly, co-incubation of GFPβ1-10 with the GFPβ11 peptide in trans efficiently reconstitutes GFP fluorescent chromophore bond and GFP fluorescence (FIG. 1a). To study PTD-mediated delivery, cell lines were generated that constitutively expressed the non-fluorescent GFPβ1-10 fragment and treated them in trans with a GFPβ11-PTD/CPP peptide to restore GFP fluorescence.
Cell clones of various human cell lines constitutively expressing the non-fluorescent large GFPβ1-10 fragment, including H1299 non-small cell lung carcinoma, HaCaT immortalized keratinocytes, and MDA-MB-231 and MCF7 breast carcinomas, and assayed for reconstituted intracellular GFP fluorescence after treatment with transducible GFPβ11-PTD/CPP peptides by FACS (FIG. 1a). Starting with human H1299 cells, known to be a good model for PTD/CPP-mediated uptake, two GFPβ1-10 expressing clones were generated (c#G3 and c#G4) (FIG. 8a). GFPβ1-10 expressing H1299c#G3 cells were treated for 1.5 h with increasing amounts of transducible GFPβ11-TAT peptide (0-60 μM), followed by an additional 3.5 h in DMEM supplemented with 10% FBS. At 5 h post-addition of GFPβ11-TAT peptide, cells were trypsinized and live cell assayed by FACS.

The subject of data set [8] is GFPβ1-10 expressing MCF7c#G7 cells. As to conditions: increasing amounts of peptide (FIG. 6).
Experimental: as §3

For the molecule “RDHMVLHEYVNAAGIT-GGSGGC-(S-S)-CGG-RKKRRQRRR-(PEG)6-GFWFG (disulfide bond, (PEG)6-GFWFG) [GFPβ11-(S-S)-TAT-P6-GFWFG]”, in data set [1], the “cytotoxicity / morphological changes” value is given as “absence of any detectable cytotoxicity”. Also, the “GFP complementation compared to parental GFPβ11-(S-S)-TAT control peptide” value in data set [2], in data set [3] and in data set [4] was “significantly enhanced GFP complementation” throughout. For the same molecule, the cytotoxicity entry in data set [5], in data set [6] and in data set [8] was “Low to no cytotoxicity” throughout. The “GFP fluorescence / transduction compared to parental GFPβ11-(S-S)-TAT” value in data set [7] is given as “four-fold increase”.
For `CC[C@H](C)[C@H](NC(=O)CNC(=O)[C@H](C)NC(=O)[C@H](C)NC(=O)[C@H](CC(N)=O)NC(=O)[C@@H](NC(=O)[C@H](Cc1ccc(O)cc1)NC(=O)[C@H](CCC(=O)O)NC(=O)[C@H](Cc1c[nH]cn1)NC(=O)[C@H](CC(C)C)NC(=O)[C@@H](NC(=O)[C@H](CCSC)NC(=O)[C@H](Cc1c[nH]cn1)NC(=O)[C@H](CC(=O)O)NC(=O)[C@@H](N)CCCNC(=N)N)C(C)C)C(C)C)C(=O)N[C@H](C(=O)NCC(=O)NCC(=O)N[C@@H](CO)C(=O)NCC(=O)NCC(=O)N[C@@H](CSSC[C@H](N)C(=O)NCC(=O)NCC(=O)N[C@@H](CCCNC(=N)N)C(=O)N[C@@H](CCCCN)C(=O)N[C@@H](CCCCN)C(=O)N[C@@H](CCCNC(=N)N)C(=O)N[C@@H](CCCNC(=N)N)C(=O)N[C@@H](CCC(N)=O)C(=O)N[C@@H](CCCNC(=N)N)C(=O)N[C@@H](CCCNC(=N)N)C(=O)N[C@@H](CCCNC(=N)N)C(=O)NCC(=O)N[C@@H](Cc1c[nH]c2ccccc12)C(=O)N[C@@H](Cc1c[nH]c2ccccc12)C(=O)NCC(N)=O)C(N)=O)[C@@H](C)O` [GFPβ11-(S-S)-TAT-WW] (I: H-RDHMVLHEYVNAAGITGGSGGC-NH2 / II: H-CGGRKKRRQRRRGWWG-NH2; disulfide I:22-II:1), the “cytotoxicity / morphological changes” value in data set [1] is “severely increased cytotoxicity”.

For the origin of these results see patent US20170275650A1, “ENDOSOMAL ESCAPE DOMAINS FOR […] OF MACR[…] CELLS” (priority 2014, published 2017).
